Test results taken from patent US6884577B2, “Methods for screening compounds for estrogenic activity” (The Regents of the University of California, priority 1993, dated 2005).

How the values were obtained:
[1] = system: ER at the AP-1 site of the collagenase promoter; assay: Collagenase promoter reporter in cells that express endogenous ER (Ishikawa, MCF-7, ZR-75-1); format: cell-based
Description: Left panel, coll73-CAT response with endogenous ER contrasted with the response of an ERE regulated reporter, ERE-coll60CAT. Right panel, coll73-LUC response with 3 μg co-transfected expression vector for human ER. Averages of three individual experiments are shown. […] A single representative experiment with triplicate hormone treatments is shown.
To further explore this phenomenon, and to test whether similar hormone effects could be detected at physiological levels of ER, the expression of the collagenase promoter in cells that express endogenous ER was examined.

ER at classical ERE = assay: Reporter genes containing classical EREs (ERE-coll60, ERE-tk) in cells with ER; format: cell-based, human
Description: FIGS. 2A-2C show antiestrogen stimulation of expression in an intact AP-1 Site, but not at classical EREs. […] Representations, at left, show the human collagenase promoter (shaded) and the consensus AP-1 site. CAT activities were from cells maintained in the absence of hormone or saturating concentrations of ICI 164,384 (ICI, 1 μM), tamoxifen (5 μM) or estradiol ([…]). CAT activity is normalized to a transfection control with the actin promoter driving expression of βHCG. Single representative experiments are shown, error bars represent standard deviation of triplicate hormone treatments.
All reporter genes described below have been modified by digestion with EcoR I and Ndel to remove a AP-I site in the backbone of pUG. Thus, Coll73 and Coll60 are formerly_Coll73 and_Coll60 (Lopez et al. Mol. Cell. Biol. 13:3042-930 (1993)). Coll73-LUC was constructed by cloning a BamHI/Pvull fragment, that spanned the luciferase transcription unit, from pMG3 into coll73, which had been digested with BamHI and SmaI to remove the CAT transcription unit. EREcoll60 and EREcoll73 was prepared by ligation of a consensus ERE ([…], SEQ ID NO:3), into the HindIII site upstream of coll60 and coll73, respectively. All other reporter genes have been previously described (Webb et al. Mol. Endocrinol. 6:157-16725 (1992): and Lopez et al., supra).
Cells were maintained and transfected as previously described in Webb et al., supra. Hormones were added two hours after plating in the following concentrations, estradiol 100 nM, ICI 164,384 1 μM, tamoxifen 5 μM, to ensure saturation of the response. F9 cells were seeded at 30% confluence upon 1.5 cm dishes and transfected overnight by calcium phosphate coprecipitation with 5 μg reporter gene, 1 μg actin β-HCG, and 1 μg of HEO, 300 ng each of c-jun and c-fos expression vectors. The cells were glycerol shocked and refed in growth medium containing hormone or ethanolic vehicle. In transient transfections, optimal amounts of HEO were employed and were as follows: HeLa (5 μg); NIH3T3 (1 μg); HepG2 (1 μg); SHM (300 ng); SY5Y (300 ng); CEF (100 ng); CV-1 (3 μg); MDA453 (3 μg); CHO (100 ng) and F9 (1 μg).
CAT assays were carried out as described in Webb et al., except that the cells were harvested one to two days after transfection instead of three. CAT activities were defined as the increase in cpm per hour at room temperature (corrected for background) per 100 μl of cell extract, normalized to production of 100 standard units of βHCG, from a co-transfected reporter gene, actin-HCG. Luciferase assays were performed as described by Brasier et al. Methods Enzymol 216:386-97 (1992)) on similar extracts that were used for CAT assays. Light units were defined as the luciferase activity per 100 μl of cell extract per 100 standard units of βHCG. Relative luciferase activities were calculated with respect to the results that were obtained in the absence of ER and hormone, which was set at 1 unit. For the data presented in Table I triplicate points were determined. Standard deviations were less than 20%.
The activity of antiestrogens in the AP-1 pathway was also compared with their activity in the classical pathway. […] A promoter with both an ERE and an AP-1 site (ERE-coll73 FIG. 2C) gave a large estrogen response, but retained some response to antiestrogens. Another control reporter, in which the tk promoter was regulated by a classical ERE (ERE-tk FIG. 2C) was also activated by estrogen, but not by antiestrogens.

In the case of `C[C@]12CC[C@@H]3c4ccc(O)cc4CC[C@H]3[C@@H]1CC[C@@H]2O` [estradiol, 17β-estradiol], the “activation of the collagenase promoter (coll73-CAT)” value ([1]; Ishikawa cells, endogenous receptor, FIG. 4A) was “activated”, the “induction of the collagenase promoter (coll73-LUC)” value ([1]; Ishikawa cells, receptor levels raised by transfection) was “inductions became larger” and the “activation of the collagenase promoter” value ([1]; MCF-7 cells, endogenous ER, FIG. 4B) was “activated”. The “activation of the collagenase promoter” value ([1]; ZR-75-1 cells) was “The same pattern occurred”, the “estrogen response of EREΔcoll60 (classical ERE substituted for AP1 site)” value (ER at classical ERE; ERC1 cells) was “restored estrogen response” and the “activation of ERE-tk” value (ER at classical ERE; HeLa cells, FIG. 2C) was “activated”.
